# Tests used:
# Assay in all cases: Test G preemergence, mixtures of Cpd. No. 20 with (b15C1)
# Assay type in all cases: in vivo
# [1] = tested on: common waterhemp (AMATU; Amaranthus rudis)
# Text: (§1) This test evaluated the effect of mixtures of Cpd. No. 20 with (b15C1) on several plant species. Seeds of plant species selected from corn (ZEAMD; Zea mays, cv. ‘Pioneer 1184’), soybean (GLXMA; Glycine max, cv. Pioneer 35T58), giant foxtail (SETFA; Setaria faberi), barnyardgrass (ECHCG; Echinochloa crus-galli), large crabgrass (DIGSA; Digitaria sanguinalis), palmer amaranth (AMAPA; Amaranthus palmeri), common waterhemp (AMATU; Amaranthus rudis), and common ragweed (AMBEL; Ambrosia artemisiifolia) were planted in pots containing Tama Silt Loam soil and treated preemergence with a directed soil spray using test chemicals formulated in a non-phytotoxic solvent mixture which included a surfactant.
# (§2) Treated plants and untreated controls were maintained in a greenhouse for approximately 21 d, after which time all treated plants were compared to untreated controls and visually evaluated for injury. Plant response ratings, summarized in Table G, are based on a 0 to 100 scale where 0 is no effect and 100 is complete control. A dash (-) response means no test result. Test results are presented as a mean of 4 reps.
# [2] = tested on: corn (ZEAMD; Zea mays, cv. ‘Pioneer 1184’)
# Text: as §1, §2
# [3] = tested on: common ragweed (AMBEL; Ambrosia artemisiifolia)
# Text: as §1, §2
# [4] = tested on: giant foxtail (SETFA; Setaria faberi)
# Text: as §1, §2
# [5] = tested on: large crabgrass (DIGSA; Digitaria sanguinalis)
# Text: as §1, §2
# [6] = tested on: barnyardgrass (ECHCG; Echinochloa crus-galli)
# Text: as §1, §2
# [7] = tested on: palmer amaranth (AMAPA; Amaranthus palmeri)
# Text: as §1, §2
# [8] = tested on: soybean (GLXMA; Glycine max, cv. Pioneer 35T58)
# Text: as §1, §2
compound,measurement,setting,value
"FC(F)c1cc(-c2c(Cl)cccc2Oc2ncc(Cl)cn2)on1 [(b15C1), 5-chloro-2-[3-chloro-2-[3-(difluoromethyl)-5-isoxazolyl]phenoxy]-pyrimidine, reference compound]",Plant response rating (0 to 100 scale),[1]; (b15C1) 8 g a.i./ha alone,0
same,Plant response rating (0 to 100 scale),[1]; (b15C1) 16 g a.i./ha alone,0
same,Plant response rating (0 to 100 scale),[1]; (b15C1) 31 g a.i./ha alone,20
same,Plant response rating (0 to 100 scale),[2]; (b15C1) 8 g a.i./ha alone,0
same,Plant response rating (0 to 100 scale),[2]; (b15C1) 16 g a.i./ha alone,0
same,Plant response rating (0 to 100 scale),[2]; (b15C1) 31 g a.i./ha alone,0
same,Plant response rating (0 to 100 scale),[3]; (b15C1) 8 g a.i./ha alone,54
same,Plant response rating (0 to 100 scale),[3]; (b15C1) 16 g a.i./ha alone,90
same,Plant response rating (0 to 100 scale),[3]; (b15C1) 31 g a.i./ha alone,100
same,Plant response rating (0 to 100 scale),[4]; (b15C1) 8 g a.i./ha alone,5
same,Plant response rating (0 to 100 scale),[4]; (b15C1) 16 g a.i./ha alone,34
same,Plant response rating (0 to 100 scale),[4]; (b15C1) 31 g a.i./ha alone,74
same,Plant response rating (0 to 100 scale),[5]; (b15C1) 8 g a.i./ha alone,54
same,Plant response rating (0 to 100 scale),[5]; (b15C1) 16 g a.i./ha alone,90
same,Plant response rating (0 to 100 scale),[5]; (b15C1) 31 g a.i./ha alone,100
same,Plant response rating (0 to 100 scale),[6]; (b15C1) 8 g a.i./ha alone,0
same,Plant response rating (0 to 100 scale),[6]; (b15C1) 16 g a.i./ha alone,0
same,Plant response rating (0 to 100 scale),[6]; (b15C1) 31 g a.i./ha alone,35
same,Plant response rating (0 to 100 scale),[7]; (b15C1) 8 g a.i./ha alone,60
same,Plant response rating (0 to 100 scale),[7]; (b15C1) 16 g a.i./ha alone,88
same,Plant response rating (0 to 100 scale),[7]; (b15C1) 31 g a.i./ha alone,97
same,Plant response rating (0 to 100 scale),[8]; (b15C1) 8 g a.i./ha alone,0
same,Plant response rating (0 to 100 scale),[8]; (b15C1) 16 g a.i./ha alone,0
same,Plant response rating (0 to 100 scale),[8]; (b15C1) 31 g a.i./ha alone,0
